This note sets out measurements from patent US20070203224A1, “SMALL-MOLECULES FOR TREATING CANCER AND ABNORMAL CELL PROLIFERATION DISORDERS” (University of Southern California, priority 2006, published 2007).

The structures appear in SMILES notation.

In data set [1] the test system is HCT16 p53+/+ (wild type) colon cancer cells. As to the kind of experiment: MTT assay (cytotoxicity). In kind it is cell-based. As to conditions: Homo sapiens, 72 hours exposure, read-out: Anticancer Activity (IC50). The method, then: (§1) The cytotoxicity of the several representative compounds have been evaluated using MTT assay. Briefly, cells were seeded in 96-well microtiter plates (HCT16 p53+/+ (wild type), HCTp53−/− (p53 negative) colon cancer cells and MD-MBA-435 (p53 mutant) breast cancer cells at 4,000 cells/well) and allowed to attach. Cells were subsequently treated with a continuous exposure to the corresponding drug for 72 hours. A 3-(4,5-dimethylthiazol-2-yl)-2,5-diphenyltetrazolium bromide solution (at a final concentration of 0.5 mg/mL) was added to each well, and cells were incubated for 4 hours at 37° C. After removal of the medium, DMSO was added and the absorbance was read at 570 nm. All assays were done in triplicate. The IC50 was then determined for each drug from a plot of log (drug concentration) versus percentage of cell kill.
(In general: Formazan colour is commonly taken as a measure of viable cells.)

In data set [2] the test system is HCTp53−/− (p53 negative) colon cancer cells. In words: MTT assay (cytotoxicity). In kind it is cell-based. As to conditions: Homo sapiens, 72 hours exposure, read-out: Anticancer Activity (IC50). The method, then:
as §1

Data set [3] concerns MCF7 breast cells. As to the kind of experiment: MTT assay (cytotoxicity). As to conditions: Homo sapiens, read-out: Anticancer Activity (IC50). In kind it is cell-based. The method, then:
[The procedure below names another cell line; the source lists this cell line under the same test.] as §1

The subject of data set [4] is MD-MBA-435 (p53 mutant) breast cancer cells. In words: MTT assay (cytotoxicity). In kind it is cell-based. As to conditions: Homo sapiens, 72 hours exposure, read-out: Anticancer Activity (IC50). The method, then:
as §1

The subject of data set [5] is NIH 189 mouse fibroblast cells. As to the kind of experiment: MTT assay (cytotoxicity). In kind it is cell-based. As to conditions: read-out: Anticancer Activity (IC50). On the procedure: [The procedure below names another organism; the source lists this organism under the same test.] as §1
Data set [6] concerns NIH3T3 mouse fibroblast cells. As to the kind of experiment: MTT assay (cytotoxicity). Type of data set: cell-based. As to conditions: read-out: Anticancer Activity (IC50). On the procedure: [The procedure below names another organism; the source lists this organism under the same test.] as §1
The subject of data set [7] is MDA-MB-435 cells. In words: Drug treatment of tumor xenografts in athymic nude mice. In kind it is in vivo. On the procedure:
50 male athymic nude (nu/nu) mice (Charles River Laboratories, Wilmington, USA) were used for in vivo testing. The animals were fed ad libitum and kept in air-conditioned rooms at 20±2° C. with a 12 h light-dark period. Animal care and manipulation were in agreement with the University of Southern California (USC) institutional guidelines, which are in accordance with the Guidelines for the Care and Use of Laboratory Animals.
MDA-MB-435 cells from in vitro cell culture were inoculated s.c. in both flanks of athymic nude mice (2×10^6 cells/flank) under aseptic conditions. Tumor growth was assessed by biweekly measurement of tumor diameters with a Vernier caliper (length×width). Tumor weight was calculated according to the formula: TW (mg)=tumor volume (mm^3)=d^2×D/2, where d and D are the shortest and longest diameters, respectively. Cells were allowed to grow to an average volume of 100 mm^3. Animals were then randomly assigned for control and treatment groups to receive control vehicle or CT19 (10 and 20 mg/kg, dissolved in sesame oil) via i.p. injections once a day for 5 days. Treatment of each animal was based on individual body weight. After 5-day treatment, the tumor volumes in each group were measured once a week for four weeks. Treated animals were checked daily for treatment toxicity/mortality.
Assays were set up in triplicates and the results were expressed as means±SD. Statistical analysis and P-value determination were done by two-tailed paired t test with a confidence interval of 95% for determination of the significance differences between treatment groups. P<0.05 were considered to be significant. ANOVA was used to test for significance among groups. The SAS statistical software package (SAS institute) was used for statistical analysis.
The in vivo efficacy of CT19 was evaluated in nude mice inoculated with human breast MDA-MB-435 cells. Animals were treated with a daily i.p. injections of saline (controls) and CT19 at 10 mg/kg or 20 mg/kg. After five-days of dosing, the drug treatment was discontinued and the animals were monitored […].

In data set [8] the test system is panel of human cancer cell lines. In words: Anticancer activity in a panel of human cancer cell lines. In kind it is cell-based. Particulars: result in words. The method, then: Anticancer activities and cell cycle perturbations induced by a number of representative compounds have been evaluated using MTT and cell cycle analysis assays.
as §1

For data set [9], the system named is HCT116p53+/+ cells. As to the kind of experiment: Cell cycle analysis by propidium iodide DNA staining. In kind it is cell-based, human. Particulars: 1 μM. On the procedure: Cell cycle perturbations induced by the representative compounds were analyzed by propidium iodide DNA staining. […] At the end of each treatment time, cells were collected and washed with PBS after a gentle centrifugation at 200×g for 5 minutes. Cells were thoroughly resuspended in 0.5 mL of PBS and fixed in 70% ethanol for at least 2 hours at 4° C. Ethanol-suspended cells were then centrifuged at 200×g for 5 minutes and washed twice in PBS to remove residual ethanol. For cell cycle analysis, the pellets were suspended in 1 mL of PBS containing 0.02 mg/mL of propidiumiodide, 0.5 mg/mL of DNase-free RNase A and 0.1% of Triton X-100 and incubated at 37° C. for 30 minutes. Cell cycle profiles were obtained using a FACScan flowcytometer (Becton Dickinson, San Jose, Calif.) and data were analyzed by ModFit LT software (Verity Software House, Inc., Topsham, Me.).

[10] abbreviates: 10 mg/kg or 20 mg/kg daily i.p. for five days.

For the compound `C=C1C(=O)O[C@@H](c2ccc([N+](=O)[O-])cc2)[C@H]1c1ccc(Cl)cc1` [CT16], the IC50 (commonly the point on the concentration scale where inhibition reaches its midpoint) is 4 ± 2 µM in data set [1], 18 ± 1 µM in data set [2], under 1 µM in [3] and 3 ± 2 µM in data set [4].

For `C=C(C(=O)OC)[C@@H](c1ccccc1)[C@H](O)c1ccc([N+](=O)[O-])cc1` [CT22], the IC50 in data set [1] came to 1 ± 1 µM; in [2], 12 ± 4 µM; in data set [3], 3 µM; in data set [4], 7 ± 5 µM; in data set [5] it was 3 µM; in data set [6] it was 3.5 µM.

Regarding `C=C1C(=O)O[C@@H](c2cc(OC)c(OC)c(OC)c2-c2cc(OC)c(OC)c(OC)c2)[C@H]1C` [CT19], the IC50 is 1 ± 1 µM in data set [1], 4 µM in [2], 4 µM in [3] and 5 µM in [4]. Moreover, the Apparent toxicity result in [7] (setting [10]) was “without apparent toxicity”. Further, in data set [7] (setting [10]), the Tolerability entry was “well tolerated”. Further, the “Tumor burden in breast xenografts” value in data set [7] (setting [10]) is “significantly reduced tumor burden”. Moreover, in [7] (20 mg/kg daily i.p. for five days, monitored five weeks, p<0.05), the “Tumor growth (tumor weight)” value was “significantly reduced tumor growth”.

For `COc1cc(-c2c(C3OC(=O)C(C)=C3C)cc(OC)c(OC)c2OC)cc(OC)c1OC` (stereo not shown) [CT20], the IC50 was 3 µM in data set [1], over 20 µM in data set [2], over 20 µM in data set [3] and over 20 µM in [4].

For the compound `C=C1C(=O)O[C@@H](c2ccc([N+](=O)[O-])cc2)[C@H]1c1ccc(C)cc1` [CT15], the IC50 in [1], in data set [2] and in [4] was over 20 µM each time.

As to `COC(=O)/C(=C/c1ccccc1)CS(=O)(=O)c1ccc(C)cc1` [CT23, (Z)-methyl 3-phenyl-2-(tosylmethyl)acrylate], the 50% inhibitory concentration (IC50) was 2 ± 2 µM in data set [1], 5 µM in [2], 15 µM in data set [3] and 6 ± 3 µM in data set [4]. In [8], the “Anticancer activity in a panel of human cancer cell lines” value is on record as “potent anticancer activity at low micromolar concentration”.

On to `C=C(C(=O)OC)[C@H](c1ccccc1)[C@@H](O)c1ccc(C#N)cc1` (stereo in doubt) [CT21, (3S,4R)-methyl 4-(4-cyanophenyl)-4-hydroxy-2-methylene-3-phenylbutanoate], for which the IC50 worked out at 2 ± 1 µM in data set [1], 13 ± 2 µM in data set [2], 3 µM in data set [3] and 8 ± 2 µM in data set [4].

Turning to `C=C1C(=O)O[C@@H](c2ccc([N+](=O)[O-])cc2)[C@H]1c1ccc(OC)cc1` [CT11], the IC50 in [1] came to 2 ± 1 µM; in [2], 9 ± 5 µM; in data set [3], 3 µM; in data set [4], 2 ± 2 µM.

As for `C=C1C(=O)O[C@@H](c2ccccc2)C1c1ccccc1` (stereo in doubt) [CT14, (4S,5R)-3-methylene-4,5-diphenyl-dihydrofuran-2(3H)-one], the IC50 in data set [1] came out at 2 ± 1 µM; in data set [2], 8 ± 1 µM; in data set [3], 2 µM; in data set [4], 2 ± 2 µM; in [5] it was 1 µM; in data set [6], 2 µM. Besides, the G2/M arrest result in data set [9] is recorded as “approximately 75%”. In addition, the “% cells in G0/G1” value in data set [9] (after 12 h) is reported as 11.9%; in data set [9] (after 24 h) it was 12.6%. Further, the “% cells in G2/M” value in data set [9] (after 12 h) worked out at 75.8%; in data set [9] (after 24 h) it was 74.5%. In addition, the figures for the “% cells in S” value in data set [9] (after 12 h) and in data set [9] (after 24 h) were 12.4% and 12.8%, respectively.

On to `C=C1C(=O)O[C@@H](c2ccccc2)[C@H]1c1ccccc1` [CT13, (4S,5R)-3-methylene-4,5-diphenyl-dihydrofuran-2(3H)-one], for which the half-inhibitory concentration (IC50) in data set [1] was determined as 3 ± 3 µM; in data set [2], 11 ± 2 µM; in [4], 2 ± 2 µM.

For `C=C1C(=O)O[C@@H](c2ccc([N+](=O)[O-])cc2)[C@@H]1c1ccc(C)cc1` [CT12], the IC50 in data set [1] was 4 ± 1 µM; in data set [2], 7 ± 5 µM; in [3], 6 µM; in [4] it was 3 ± 2 µM.

As for `C=C1C(=O)O[C@@H](c2ccccc2)[C@@H]1C` [CT10], the results for the IC50 in data set [1], in data set [2] and in data set [4] were 1 ± 1 µM, 23 ± 2 µM and 5 ± 3 µM, respectively.
